Earlier results as cited in patent US11324828B2, “Hydrogel polymeric compositions and methods” (Incept, LLC, priority 2007, dated 2022).
Read-outs that look alike come from different tables or passages of the source.

Experiments:
[1] = not given; remark: listed apart in the source

water solubility	Structure (SMILES)	Solubility ([1]; in water)	also measured
about 86 mg/L	CCCCN1CCCCC1C(=O)Nc1c(C)cccc1C (stereo not drawn) [Bupivacaine]	–	–
about 1113 mg/L	O=C(O)Cc1ccccc1Nc1c(Cl)cccc1Cl [Diclofenac Sodium]	–	–
–	CCc1cccc2c3c([nH]c12)C(CC)(CC(=O)O)OCC3 (stereo not drawn) [Etodolac]	Insoluble in water	–
–	CC(C(=O)[O][Ca][O]C(=O)C(C)c1cccc(Oc2ccccc2)c1)c1cccc(Oc2ccccc2)c1 (stereo not drawn) [Fenoprofen Calcium]	Slightly soluble in water	–
–	Cc1ccc(Cl)c(Nc2ccccc2C(=O)[O-])c1Cl.[Na+] [Meclofenamate Sodium]	–	Solubility ([1]; @ pH 7.2): <50 μg/mL @ pH 7.2 50 mg/mL @ pH 9.0
–	NC(=O)Cc1cccc(C(=O)c2ccccc2)c1N [Nepafenac]	–	Solubility ([1]; no pH or medium printed): <1 mg/ml (The drug is available as 0.1% suspension)
